Assay results taken from patent US12655141B2, “Inhibitors of notch signaling pathway and use thereof in treatment of cancers” (Cellestia Biotech AG, priority 2019, dated 2026).

Legend:
[1] = test system: NOTCH positive/driven human T cell acute lymphoblastic leukemia cell line RPMI 8402; assay: Alamar blue anti-proliferative assay; type: cell-based; conditions: Homo sapiens, RPMI 8402, RPMI8402, 72 hours, concentration range 0.01-10 μM
Protocol: Alamarblue® and PrestoBlue proliferation assays were performed to determine the growth kinetics of Notch inhibitor treated cells. Alamar Blue® and PrestoBlue consists of a cell permeable substrate resazurin. In metabolically active and proliferating cells, resazurin is converted to resorufin due to an intrinsic reducing power of live cells and produces a red fluorescence. Therefore production of resorufin serves as an indicator of the viability of the cell population.
Proliferation assays were performed by seeding 5000 cells/well in a 96 well plate. Cells were treated with DMSO or compounds for 72 hours using concentration ranges of 0.01-10 μM. Each concentration was tested in 4 replicates. To determine the growth kinetics, 10 μl of Alamar Blue® or PrestoBlue (Invitrogen) was added to each well and incubated for 4 hours. Readout was taken using Tecan F500 (Tecan) multiplate reader or Varioskan LUX (ThermoFisher) multiplate reader.
In order to determine anti-cancer potency of compounds compared to 6-(4-tert-butylphenoxy)pyridin-3-amine (described in WO2013/093885), NOTCH positive/driven human T cell acute lymphoblastic leukemia cell line RPMI 8402 was treated with selected compounds.

cMYC = assay: Western blot of RPMI8402 protein lysates: cMYC; type: cell-based, human; conditions: NOTCH positive leukemic cells, 1 μM, 24 hours, FIGS. 2 and 3
Protocol: (§1) One million human NOTCH positive T-ALL cell line RPMI8402 were treated with NOTCH targeting compounds at 1 μM concentration for 24 hours. Following treatment cells were harvested and washed with 1×PBS. Total RNA and total protein lysates were extracted as described below.
(§2) Cells were lysed in RIPA buffer (50 mM Tris·Cl, pH 7.5, 150 mM NaCl, 1% nonidet P-40, 0.5% sodium deoxycholate and 0.1% SDS) for 30 minutes at 4° C. Lysed cells were centrifuged to remove the debris at 14000 rpm at 4° C. Supernatant was transferred to a new eppendorf tube. The protein concentration was determined by Bradford assay using spectrophotometer (Ultrospec 3000 pro).
(§3) Initially for western blotting, 40 μg of protein were denatured in 1×SDS gel loading buffer (100 mM Tris·Cl, pH 6.8, 200 mM DTT, 4% SDS, 0.2% bromophenol, 20% glycerol) by heating at 99° C. for 5 minutes. Denatured protein samples were stored on ice until loading on to the acrylamide gel. The samples were run on 8% or 10% acrylamide gel in Tris-glycine electrophoresis buffer (25 mM Tris, 250 mM glycine, 0.1% SDS). Following separation on the acrylamide gel, protein samples were transferred on to PVDF membrane (PEQ lab, catalog number 39-3010) using transfer buffer (39 mM glycine, 48 mM Tris base, 0.037% SDS and 20% methanol).
(§4) For immunoblotting, membranes were blocked with 5% milk and incubated overnight with primary antibodies at 4° C. Membrane were washed with 1×TBST (1×TBS+0.5 tween 20) for 5 minutes (3 times) and incubated with HRP-conjugated secondary antibodies for one hour at room temperature. Signal was detected with Super Signal West chemiluminescent substrate (Thermo Scientific, catalog number 34077).
(§5) Total protein lysates were analysed by western blot analysis using N1-ICD (cleaved and active NOTCH1 Intracellular Domain), cMYC and ACTIN specific antibodies.

[2] = test system: N1-ICD (cleaved and active NOTCH1 Intracellular Domain); assay: Western blot of RPMI8402 protein lysates: N1-ICD; type: cell-based, human; conditions: NOTCH positive leukemic cells, 1 μM, 24 hours, FIGS. 2 and 3
Protocol: as §1, §2, §3, §4, §5

NOTCH pathway = assay: Western blot, downregulation of NOTCH pathway (N1-ICD and cMYC), FIG. 2 and 3; type: cell-based, human; conditions: RPMI8402, 1 μM, 24 hours
Protocol: NOTCH positive human leukemic RPMI8402 cells were treated with 1 μM of 6-(4-tert-butylphenoxy)pyridin-3-amine and 6-([1,1′-Biphenyl]-4-yloxy)-N-methylpyridin-3-amine for 24 hours. Following treatment, total protein lysates were extracted and protein expression analysed by western blot.
NOTCH positive human leukemic RPMI8402 cells were treated with 1 μM of 6-(4-tert-butylphenoxy)pyridin-3-amine and 6-((4′-Fluoro-[1,1′-biphenyl]-4-yl)oxy)pyridin-3-amine, 6-([1,1′-Biphenyl]-4-yloxy)-4-methylpyridin-3-amine, 6-([1,1′-Biphenyl]-4-yloxy)-2-methylpyridin-3-amine and N-Methyl-6-((6-phenylpyridin-3-yl)oxy)pyridin-3-amine for 24 hours. Following treatment, total protein lysates were extracted and protein expression analysed by western blot.
as §1, §2, §3, §4

Row | IC50 [1] | Structure (SMILES) | downregulation of cMYC compared to 6-(4-tert-butylphenoxy)pyridin-3-amine (cMYC) | downregulation of N1-ICD compared to 6-(4-tert-butylphenoxy)pyridin-3-amine [2] | potency in downregulating NOTCH pathway compared with 6-(4-tert-butylphenoxy)pyridin-3-amine (NOTCH pathway)
1 | 0.11 µM | Cc1cc(Oc2ccc(-c3ccccc3)cc2)ncc1N [Example 9, 6-([1,1′-Biphenyl]-4-yloxy)-4-methylpyridin-3-amine] | stronger downregulation | stronger downregulation | enhanced potency
2 | 0.083 µM | Nc1ccc(Oc2ccc(-c3ccc(F)cc3)cc2)nc1 [Example 10, 6-((4′-Fluoro-[1,1′-biphenyl]-4-yl)oxy)pyridin-3-amine] | stronger downregulation | stronger downregulation | enhanced potency
3 | 0.5 µM | CNc1ccc(Oc2ccc(-c3ccccc3)nc2)nc1 [Example 23, N-Methyl-6-((6-phenylpyridin-3-yl)oxy)pyridin-3-amine] | stronger downregulation | stronger downregulation | enhanced potency
